According to the Deep4Chem optical property database:

Assay: solvent given as SMILES

Question: For `CCCCCCC(CCCCCC)N1C(=O)c2cccc3c(-c4ccc(OC)cc4)ccc(c23)C1=O`, which fluorescence lifetime (in CCCCCC) is on record?
Answer: Its fluorescence lifetime is 2.65 ns.

Question: And the fluorescence lifetime (in CCCCCCCCCCCCCC)?
Answer: The fluorescence lifetime was 3.12 ns.

Question: What about the fluorescence lifetime (in CCCCCCCCCCCO) of the same compound?
Answer: The fluorescence lifetime was 4.78 ns.

Question: And the fluorescence lifetime (in CCCCO)?
Answer: The fluorescence lifetime was 5.18 ns.

Question: And the fluorescence lifetime (in CN(C)C=O)?
Answer: The fluorescence lifetime was 5.24 ns.

Question: What about the fluorescence lifetime (in Cc1ccccc1) of the same compound?
Answer: Its fluorescence lifetime is 3.5 ns.

Question: What about the fluorescence lifetime (in ClC(Cl)Cl) of the same compound?
Answer: The fluorescence lifetime was 4.11 ns.

Question: Which fluorescence lifetime (in CS(C)=O) does the source give for `CCCCCCCCCCCCOc1cc2cc(N(C)C)ccc2cc1C#N` here?
Answer: Its fluorescence lifetime is 5.5 ns.

Question: With `CC(=O)Nc1cc2ccc3cccc4ccc(c1)c2c34` as the compound, how does the fluorescence lifetime (in CCCCCCC) read?
Answer: The fluorescence lifetime was 108 ns.

Question: Which fluorescence lifetime (in O=P(c1ccccc1)(c1ccccc1)c1ccccc1Oc1ccccc1P(=O)(c1ccccc1)c1ccccc1) does the source give for `CC1(C)c2ccccc2N(c2ccc3c(c2)Oc2ccccc2S3(=O)=O)c2ccccc21` here?
Answer: The fluorescence lifetime was 29 ns.

Question: For `N#Cc1ncc(-c2c3ccccc3c(-c3cnc(C#N)nc3)c3ccccc23)cn1`, which fluorescence lifetime (in CCO) is on record?
Answer: Its fluorescence lifetime is 1.8 ns.

Question: And the fluorescence lifetime (in ClCCl)?
Answer: The fluorescence lifetime was 5.8 ns.

Question: With `c1ccc(-c2cc3cccc[n+]3[b-]3ccc(-c4cc[b-]5c(c4)c(-c4ccccc4)cc4cccc[n+]54)cc32)cc1` as the compound, how does the fluorescence lifetime (in C1CCCCC1) read?
Answer: Its fluorescence lifetime is 4 ns.

Question: Which fluorescence lifetime (in C1CCOC1) does the source give for `Cn1cccc1-c1cc(C#N)ccc1C#N` here?
Answer: The fluorescence lifetime was 13.1 ns.

Question: And the fluorescence lifetime (in CC#N)?
Answer: Its fluorescence lifetime is 2.8 ns.

Question: What about the fluorescence lifetime (in CCCCCC) of the same compound?
Answer: The fluorescence lifetime was 7.5 ns.

Question: What about the fluorescence lifetime (in CCCCOCCCC) of the same compound?
Answer: Its fluorescence lifetime is 11.4 ns.

Question: And the fluorescence lifetime (in CCOCC)?
Answer: The fluorescence lifetime was 12.6 ns.

Question: Which fluorescence lifetime (in O) does the source give for `O=C(O)CCCCCn1c2ccc(Br)cc2c(=O)c2cc(Br)ccc21` here?
Answer: Its fluorescence lifetime is 6 ns.

Question: For `CCC1(CC)c2ccccc2-c2c1c1c(c3c2C(CC)(CC)c2cc(/C=C/c4cccs4)ccc2-3)C(CC)(CC)c2cc(/C=C/c3cccs3)ccc2-1`, which fluorescence lifetime (in C1CCOC1) is on record?
Answer: The fluorescence lifetime was 1.5 ns.

Question: For `CCCCOc1ccc(-c2oc3c(-c4ccc(OCCCC)cc4)c4n(c3c2-c2ccc(OCCCC)cc2)[B-](F)(F)[N+]2=Cc3c(-c5ccc(OCCCC)cc5)c5oc(-c6ccc(OCCCC)cc6)c(-c6ccc(OCCCC)cc6)c5n3[B-](F)(F)[N+]2=C4)cc1`, which fluorescence lifetime (in ClCCl) is on record?
Answer: Its fluorescence lifetime is 2.56 ns.

Question: With `CC(C)(C)NC(=O)c1ccc(-c2cc3ccccc3s2)c2ccc3c4ccccc4c4ccccc4c3c12` as the compound, how does the fluorescence lifetime (in ClCCl) read?
Answer: The fluorescence lifetime was 0.69 ns.

Question: Which results are given for `COc1c2ccccc2c(-c2ccccc2)c2ccccc12`?
Answer: fluorescence lifetime (in CC1CCCCC1): 2.48 ns; fluorescence lifetime (in CC#N): 1.38 ns; fluorescence lifetime (in CC(C)CC(C)(C)C): 2.38 ns; fluorescence lifetime (in CC(C)O): 2.94 ns; fluorescence lifetime (in CCCCCC): 1.52 ns; fluorescence lifetime (in CCCCO): 3.7 ns; fluorescence lifetime (in CCO): 2.9 ns; fluorescence lifetime (in CO): 2.04 ns; fluorescence lifetime (in OCC(O)CO): 7.53 ns

Question: Which fluorescence lifetime (in ClCCl) does the source give for `N#Cc1ccc(C2=Cc3cc4ccccc4cc3P2(=O)c2ccccc2)cc1` (configuration not stated) here?
Answer: The fluorescence lifetime was 2.5 ns.

Question: For `O=[N+]([O-])c1ccc(C#Cc2ccc3ccccc3c2)cc1`, which fluorescence lifetime (in ClC(Cl)Cl) is on record?
Answer: Its fluorescence lifetime is 0.25 ns.

Question: What about the fluorescence lifetime (in ClCCl) of the same compound?
Answer: The fluorescence lifetime was 0.35 ns.

Question: For `N#Cc1nc2c3ccc(-c4ccc(-n5c6ccccc6c6ccccc65)cc4)cc3c3cc(-c4ccc(-n5c6ccccc6c6ccccc65)cc4)ccc3c2nc1C#N`, which fluorescence lifetime (in O=P(c1ccccc1)(c1ccccc1)c1cccc(-c2cc(-n3c4ccccc4c4ccccc43)cc(-n3c4ccccc4c4ccccc43)c2)n1) is on record?
Answer: Its fluorescence lifetime is 40.6 ns.

Question: With `C(#Cc1ccccc1)C(C#Cc1ccccc1)=Cc1cccc(C=C(C#Cc2ccccc2)C#Cc2ccccc2)c1` as the compound, how does the fluorescence lifetime (in ClC(Cl)Cl) read?
Answer: Its fluorescence lifetime is 0.3 ns.

Question: With `C/C(=N\Nc1ccc(C#N)cc1)c1ccccn1` as the compound, how does the fluorescence lifetime (in CO) read?
Answer: The fluorescence lifetime was 1.69 ns.

Question: Which results are given for `CC1=CC(c2ccc3ccccc3c2)=[O+][B-]2(OC(=O)C(=O)O2)O1`?
Answer: fluorescence lifetime (in CC#N): 18.8 ns; fluorescence lifetime (in ClC(Cl)(Cl)Cl): 5.1 ns

Question: Which results are given for `COC(=O)C(NC(=O)OC(C)(C)C)c1ccc2oc(-c3cc(OC)ccc3OC)nc2c1` (configuration not stated)?
Answer: fluorescence lifetime (in CC1CCCCC1): 1.93 ns; fluorescence lifetime (in CC#N): 2.03 ns; fluorescence lifetime (in CO): 2.03 ns

Question: With `COc1cc2cc(-c3ccc(C(=O)OCOC(C)=O)cc3C(=O)OCOC(C)=O)oc2cc1N1CCOCCOCCN(c2cc3oc(-c4ccc(C(=O)OCOC(C)=O)cc4C(=O)OCOC(C)=O)cc3cc2OC)CCOCCOCC1` as the compound, how does the fluorescence lifetime (in O) read?
Answer: Its fluorescence lifetime is 0.52 ns.

Question: With `CCc1c(C)[nH]c(C2=[N+]3C(=C(C)c4c(C)c(CC)c(C)n4[B-]3(F)F)c3ccccc32)c1C` as the compound, how does the fluorescence lifetime (in ClCCl) read?
Answer: The fluorescence lifetime was 6.21 ns.

Question: Which fluorescence lifetime (in C1CCCCC1) does the source give for `Cc1ccc(C)cc1` here?
Answer: Its fluorescence lifetime is 47 ns.

Question: With `C(=C\c1ccccn1)/c1ccc(N(c2ccc(/C=C/c3ccccn3)cc2)c2ccc(-c3nc4ccccc4nc3-c3ccc(N(c4ccc(/C=C/c5ccccn5)cc4)c4ccc(/C=C/c5ccccn5)cc4)cc3)cc2)cc1` as the compound, how does the fluorescence lifetime (in C1CCOC1) read?
Answer: The fluorescence lifetime was 1.17 ns.

Question: For `c1ccc2c(-n3c4ccccc4c4ccccc43)cccc2c1`, which fluorescence lifetime (in C1CCCCC1) is on record?
Answer: The fluorescence lifetime was 4.9 ns.

Question: And the fluorescence lifetime (in CCOC(C)=O)?
Answer: The fluorescence lifetime was 4.9 ns.

Question: And the fluorescence lifetime (in CO)?
Answer: Its fluorescence lifetime is 5.1 ns.

Question: With `COc1ccc(C#Cc2c3cc4ccccc4cc3c(C#Cc3ccc(OC)cc3)c3cc4sc(C)cc4cc23)cc1` as the compound, how does the fluorescence lifetime (in ClCCl) read?
Answer: Its fluorescence lifetime is 11.8 ns.

Question: Which fluorescence lifetime (in C1COCCO1) does the source give for `Cc1c(OCC(=O)O)cc2c3c([nH]c2c1C)C(=O)CCC3` here?
Answer: The fluorescence lifetime was 0.54 ns.

Question: And the fluorescence lifetime (in CC#N)?
Answer: Its fluorescence lifetime is 0.97 ns.

Question: What about the fluorescence lifetime (in CCO) of the same compound?
Answer: Its fluorescence lifetime is 1.52 ns.

Question: And the fluorescence lifetime (in CS(C)=O)?
Answer: Its fluorescence lifetime is 2.34 ns.

Question: What about the fluorescence lifetime (in Cc1ccccc1) of the same compound?
Answer: The fluorescence lifetime was 0.52 ns.

Question: What about the fluorescence lifetime (in O) of the same compound?
Answer: Its fluorescence lifetime is 1.77 ns.

Question: What does the source list for `CNc1ccc2c(c1)C(=O)c1ccccc1-2`?
Answer: fluorescence lifetime (in C1CCCCC1): 3.1 ns; fluorescence lifetime (in c1ccccc1): 0.63 ns

Question: Which fluorescence lifetime (in CC#N) does the source give for `C[n+]1cc2ccc3c[n+](C)c4ccccc4c3c2c2ccccc21` here?
Answer: Its fluorescence lifetime is 5.8 ns.

Question: Which fluorescence lifetime (in c1ccc2c(c1)c1ccccc1n2-c1ccc(-c2ccc(-n3c4ccccc4c4ccccc43)cc2)cc1) does the source give for `O=P1(c2ccccc2)c2cc(N3c4ccccc4Oc4ccccc43)ccc2-c2ccc(N3c4ccccc4Oc4ccccc43)cc21` here?
Answer: The fluorescence lifetime was 23.7 ns.

Question: Which fluorescence lifetime (in CC#N) does the source give for `CCN(CC)c1ccc2cc3ccc(=[N+](CC)CC)cc-3oc2c1` here?
Answer: The fluorescence lifetime was 4.18 ns.

Question: What about the fluorescence lifetime (in CCO) of the same compound?
Answer: Its fluorescence lifetime is 3.89 ns.

Question: What about the fluorescence lifetime (in CN(C)C=O) of the same compound?
Answer: Its fluorescence lifetime is 3.87 ns.

Question: What about the fluorescence lifetime (in O) of the same compound?
Answer: Its fluorescence lifetime is 4.07 ns.

Question: For `COC(=O)/C(C#N)=c1\s/c(=c2/s/c(=C(/C#N)C(=O)OC)c3cc(-c4ccc(OC)cc4)sc23)c2sc(-c3ccc(OC)cc3)cc12`, which fluorescence lifetime (in Cc1ccccc1) is on record?
Answer: The fluorescence lifetime was 4.36 ns.

Question: Which fluorescence lifetime (in CS(C)=O) does the source give for `Cn1c(=O)c(/N=N/c2ccc(Nc3ccccc3)c(S(=O)(=O)O)c2)c(O)c2ccccc21` here?
Answer: The fluorescence lifetime was 0.05 ns.

Question: With `N#Cc1c(-n2c3ccc(I)cc3c3cc(I)ccc32)c(-n2c3ccc(I)cc3c3cc(I)ccc32)c(C#N)c(-n2c3ccc(I)cc3c3cc(I)ccc32)c1-n1c2ccc(I)cc2c2cc(I)ccc21` as the compound, how does the fluorescence lifetime (in Cc1ccccc1) read?
Answer: Its fluorescence lifetime is 0.1 ns.
